According to patent publication US20230398130A1, “METHODS AND COMPOSITIONS FOR DIFFERENTIATING STEM CELLS” (Massachusetts Institute of Technology, priority 2020, published 2023):

Columns and labels:
[1] = test system: ISC-enriched organoids; experiment: Primary screen, 384-well 2.5-D organoid differentiation (ENR+CD, 6 days): basal lysozyme secretion (LYZ.NS); type: cell-based, murine; conditions: for Dose.FC.LYZ.NS: FC vs plate median; for Z.LYZ.NS: standard z score of FC; for SSMD.LYZ.NS: strictly standardized mean difference
Excerpt: (§1) High-throughput screening.

[2] = test system: ISC-enriched organoids; experiment: Primary screen, 384-well 2.5-D organoid differentiation (ENR+CD, 6 days): carbachol-induced lysozyme secretion (LYZ.S); type: cell-based, murine; conditions: for Dose.FC.LYZ.S: FC vs plate median; for Z.LYZ.S: standard z score; for SSMD.LYZ.S: strictly standardized mean difference
Excerpt: as §1

[3] = test system: ISC-enriched organoids; experiment: Primary screen, 384-well 2.5-D organoid differentiation (ENR+CD, 6 days, Target Selective Inhibitor Library, vs whole-plate median): ATP (CellTiter-Glo 3D, CTG); conditions: for Dose.FC.CTG: FC vs plate median; for Z.CTG: standard z score of FC; for SSMD.CTG: strictly standardized mean difference
[4] = primary screen, dose 0.08 uM, ENR+CD 6 days
[5] = primary screen, dose 0.40 uM, ENR+CD 6 days
[6] = primary screen, dose 2.00 uM, ENR+CD 6 days
[7] = primary screen, dose 10.00 uM, ENR+CD 6 days
[8] = primary screen, 1st of the 4 dose lines of the treatment (dose not given)
[9] = primary screen, 2nd of the 4 dose lines of the treatment (dose not given)
[10] = primary screen, 3rd of the 4 dose lines of the treatment (dose not given)
[11] = primary screen, 4th of the 4 dose lines of the treatment (dose not given)

Cc1cc2c(C(C)C)c(O)c(O)c(C=O)c2c(O)c1-c1c(C)cc2c(C(C)C)c(O)c(O)c(C=O)c2c1O [AT101]
Dose.FC.LYZ.NS [1, 4]: −0.049 log 2 fold change | Z.LYZ.NS ([1]; primary screen, dose 0.08 uM): −0.426 | Dose.FC.LYZ.NS [1, 5]: −0.068 log 2 fold change | Z.LYZ.NS ([1]; primary screen, dose 0.40 uM): −0.592 | Dose.FC.LYZ.NS [1, 6]: −0.036 log 2 fold change | Z.LYZ.NS ([1]; primary screen, dose 2.00 uM): −0.311 | Dose.FC.LYZ.NS [1, 7]: −0.052 log 2 fold change | Z.LYZ.NS ([1]; primary screen, dose 10.00 uM): −0.452 | Dose.FC.LYZ.S [2, 4]: 0.004 log 2 fold change | Dose.FC.LYZ.S [2, 5]: −0.013 log 2 fold change | Dose.FC.LYZ.S [2, 6]: −0.085 log 2 fold change | Dose.FC.LYZ.S [2, 7]: −0.061 log 2 fold change | Dose.FC.CTG [3, 4]: −0.198 log 2 fold change | Z.CTG ([3]; primary screen, dose 0.08 uM): −0.472 | Dose.FC.CTG [3, 5]: 0.019 log 2 fold change | Z.CTG ([3]; primary screen, dose 0.40 uM): 0.044 | Dose.FC.CTG [3, 6]: −0.216 log 2 fold change | Z.CTG ([3]; primary screen, dose 2.00 uM): −0.515 | Dose.FC.CTG [3, 7]: −0.056 log 2 fold change | Z.CTG ([3]; primary screen, dose 10.00 uM): −0.133

Cc1[nH]c2ccccc2c1CCNC(=O)c1cccs1 [CK-636]
Dose.FC.LYZ.NS ([1]; Dose 0.08 uM, ENR+CD, 6 days): 0.039 log 2 fold change | Z.LYZ.NS ([1]; Dose 0.08 uM): 0.336 | Dose.FC.LYZ.NS ([1]; Dose 0.40 uM, ENR+CD, 6 days): −0.049 log 2 fold change | Z.LYZ.NS ([1]; Dose 0.40 uM): −0.427 | Dose.FC.LYZ.NS ([1]; Dose 2.00 uM, ENR+CD, 6 days): −0.066 log 2 fold change | Z.LYZ.NS ([1]; Dose 2.00 uM): −0.573 | Dose.FC.LYZ.NS ([1]; Dose 10.00 uM, ENR+CD, 6 days): −0.108 log 2 fold change | Z.LYZ.NS ([1]; Dose 10.00 uM): −0.944 | Dose.FC.LYZ.S ([2]; Dose 0.08 uM, ENR+CD, 6 days): 0.080 log 2 fold change | Dose.FC.LYZ.S ([2]; Dose 0.40 uM, ENR+CD, 6 days): −0.013 log 2 fold change | Dose.FC.LYZ.S ([2]; Dose 2.00 uM, ENR+CD, 6 days): 0.072 log 2 fold change | Dose.FC.LYZ.S ([2]; Dose 10.00 uM, ENR+CD, 6 days): −0.103 log 2 fold change | Dose.FC.CTG ([3]; Dose 0.08 uM, ENR+CD, 6 days): 0.202 log 2 fold change | Z.CTG ([3]; Dose 0.08 uM): 0.483 | Dose.FC.CTG ([3]; Dose 0.40 uM, ENR+CD, 6 days): −0.004 log 2 fold change | Z.CTG ([3]; Dose 0.40 uM): −0.010 | Dose.FC.CTG ([3]; Dose 2.00 uM, ENR+CD, 6 days): −0.201 log 2 fold change | Z.CTG ([3]; Dose 2.00 uM): −0.479 | Dose.FC.CTG ([3]; Dose 10.00 uM, ENR+CD, 6 days): −0.169 log 2 fold change | Z.CTG ([3]; Dose 10.00 uM): −0.404

COc1ccc(-c2cnc3c(-c4cccc5ncccc45)cnn3c2)cc1 [ML347]
Dose.FC.LYZ.NS ([1]; Dose 0.08 uM, primary screen): 0.124 log 2 fold change | Z.LYZ.NS ([1]; Dose 0.08 uM): 1.079 | Dose.FC.LYZ.NS ([1]; Dose 0.40 uM, primary screen): 0.132 log 2 fold change | Z.LYZ.NS ([1]; Dose 0.40 uM): 1.150 | Dose.FC.LYZ.NS ([1]; Dose 2.00 uM, primary screen): 0.069 log 2 fold change | Z.LYZ.NS ([1]; Dose 2.00 uM): 0.600 | Dose.FC.LYZ.NS ([1]; Dose 10.00 uM, primary screen): −0.124 log 2 fold change | Z.LYZ.NS ([1]; Dose 10.00 uM): −1.078 | SSMD.LYZ.NS [1, 8]: 1.159 | SSMD.LYZ.NS [1, 9]: 1.286 | SSMD.LYZ.NS [1, 10]: 0.509 | SSMD.LYZ.NS [1, 11]: −0.643 | Dose.FC.LYZ.S ([2]; Dose 0.08 uM, primary screen): 0.094 log 2 fold change | Dose.FC.LYZ.S ([2]; Dose 0.40 uM, primary screen): 0.111 log 2 fold change | Dose.FC.LYZ.S ([2]; Dose 2.00 uM, primary screen): 0.072 log 2 fold change | Dose.FC.LYZ.S ([2]; Dose 10.00 uM, primary screen): −0.202 log 2 fold change | Z.LYZ.S [2, 8]: 0.608 | Z.LYZ.S [2, 9]: 0.715 | Z.LYZ.S [2, 10]: 0.467 | Z.LYZ.S [2, 11]: −1.303 | SSMD.LYZ.S [2, 8]: 0.546 | SSMD.LYZ.S [2, 9]: 0.729 | SSMD.LYZ.S [2, 10]: 0.450 | SSMD.LYZ.S [2, 11]: −1.245 | Dose.FC.CTG ([3]; Dose 0.08 uM, primary screen): 0.184 log 2 fold change | Z.CTG ([3]; Dose 0.08 uM): 0.439 | Dose.FC.CTG ([3]; Dose 0.40 uM, primary screen): 0.209 log 2 fold change | Z.CTG ([3]; Dose 0.40 uM): 0.500 | Dose.FC.CTG ([3]; Dose 2.00 uM, primary screen): 0.137 log 2 fold change | Z.CTG ([3]; Dose 2.00 uM): 0.328 | Dose.FC.CTG ([3]; Dose 10.00 uM, primary screen): −0.169 log 2 fold change | Z.CTG ([3]; Dose 10.00 uM): −0.404 | SSMD.CTG [3, 8]: 0.464 | SSMD.CTG [3, 9]: 0.557 | SSMD.CTG [3, 10]: 0.403 | SSMD.CTG [3, 11]: −0.307
